Laboratory results: paper PMC8424644, “Thermodynamic Stability and Speciation of Ga(III) and Zr(IV) Complexes with High-Denticity Hydroxamate Chelators” (Inorganic Chemistry, 2021)
Read-outs that look alike come from different tables or passages of the source. Blank lines part the entries; values can stand above or below the compound they belong to.

Columns and labels:
[1] = design: method as in PMID 31940188; conditions: calculations by Holland; cited from earlier work
[2] = taken from the literature, cited from earlier work
[3] = pGa calculation (ligand sequestering ability); assay type: physicochemical; conditions: pGa = −log[Ga(III)free], pH 7.4, cL = 10 μM, cGa(III) = 1 μM
Excerpt: (§1) Despite a large variety of PET chelators synthesized and tested in order to provide strong coordination of Ga(III) and Zr(IV) in vivo, until now it is has been hard to avoid the release of these metal ions in the body. Here we report two new Ga(III) and Zr(IV) hydroxamate chelators, designed to achieve an efficient sequestering of these metal ions but also to understand how the cyclization and the introduction of an additional hydroxamate group influences the stability of Zr(IV) complexes. Therefore, it is important to evaluate and compare the Ga(III)- and Zr(IV)-sequestering abilities of H3L1 and H4L2 with those of other chelators. However, the direct comparison of the stability constants of metal complexes is not straightforward, and other tools taking into account all the physicochemical properties of the ligands, i.e. their denticity, coordination modes, and acid–base properties, should be used.[52] In order to reliably compare the chelating abilities of H3L1 and H4L2 toward Ga(III) and Zr(IV) ions, the pM values were calculated. pFe was originally introduced by Raymond for the comparison of iron-siderophore systems;[53] pGa = −log[Ga(III)free] and pZr = −log[Zr(IV)free] were calculated at pH 7.4 with cL = 10 μM and cGa(III)/Zr(IV) = 1 μM (Table 2).

[4] = cited from earlier work
[5] = pZr calculation (ligand sequestering ability); assay type: physicochemical; conditions: pZr = −log[Zr(IV)free], pH 7.4, cL = 10 μM, cZr(IV) = 1 μM
Excerpt: as §1

[6] = cited from earlier work; for pKa attributed to the deprotonation of a water molecule in the Zr(IV) complex: ref 24 (DFOB), 27 (EDTA)
[7] = design: method as in ref 24 (DFOB), 2 (THPN), 25,58 (3,4,3-LI-HOPO), 25,59 (DTPA); conditions: (re)calculated from constants of original publications, pH 7.4, cL = 10 μM, cZr(IV) = 1 μM; ref 24 (DFOB), 2 (THPN), 25,58 (3,4,3-LI-HOPO), 25,59 (DTPA); cited from earlier work
[8] = pFe calculation (ligand sequestering ability); assay type: physicochemical; conditions: pH=7.4, cL=10 μM, metal 1 μM
Excerpt: Despite a large variety of PET chelators synthesized and tested in order to provide strong coordination of Ga(III) and Zr(IV) in vivo, until now it is has been hard to avoid the release of these metal ions in the body. Here we report two new Ga(III) and Zr(IV) hydroxamate chelators, designed to achieve an efficient sequestering of these metal ions but also to understand how the cyclization and the introduction of an additional hydroxamate group influences the stability of Zr(IV) complexes. Therefore, it is important to evaluate and compare the Ga(III)- and Zr(IV)-sequestering abilities of […] and […] with those of other chelators. […] page 15: 100 100 [ZrL4]+ [ZrL3]+ [ZrL4H ] -1 80 [ZrL3H ] 80 2+ -1 [ZrHL4] […] Experimental section. Ligands' sequestering ability Table S3. pFe values with various synthetic and biological chelators a Ligand pFe Chelating groups and ligands geometry […] 24.3 3 hydroxamate groups in a cyclic arrangement […] 23.3 4 hydroxamate groups in a linear arrangement […] 26.9 3 hydroxamate groups in a cyclic arrangement […] 23.61 3 hydroxamate groups in a linear arrangement […] DFOE 27.73 3 hydroxamate groups in a cyclic arrangement […] protonation and stability constants given in original publications; the hydrolysis constants of Fe(III) ions were taken from the literature14 and are given in the experimental section 15 (also on this page, place not known: […]

[9] = design: method as in ref 43 (DFOB), 38 (DFOE), 11 (DOTA), 54 (NOTA), 55 (H2hox), 56 (PrP9), 57 (HBED); conditions: (re)calculated from constants of original publications, pH 7.4, cL = 10 μM, cGa(III) = 1 μM; ref 43 (DFOB), 38 (DFOE), 11 (DOTA), 54 (NOTA), 55 (H2hox), 56 (PrP9), 57 (HBED); cited from earlier work
[10] = acidic range; cited from earlier work
[11] = design: method as in PMID 11666621; conditions: acidic range; cited from earlier work
[12] = Fe(III)-L + Zr(IV)-NTA metal–metal competition UV–vis titrations; assay type: physicochemical; conditions: Fe(III)-DFOB + Zr(IV)-NTA competition
[13] = taken from the literature, ref 38 (H3L3), 35 (H3L4), 36,38 (DFOE)

Structure (SMILES): O=C1CCN(O)C(=O)CCCNC(=O)CCN(O)C(=O)CCCNC(=O)CCN(O)C(=O)CCCNC(=O)CCN(O)C(=O)CCCN1 [CTH36]
- log β [Zr(L)] predicted from computational calculations [1]: 52.84

- pGa [3]: 21.9
- pZr [5]: 32.6
Structure (SMILES): CN(O)C(=O)CCC(=O)NCCOCC(C)(COCCNC(=O)CCC(=O)N(C)O)COCCNC(=O)CCC(=O)N(C)O [H3L4]
- log β [FeHL] [2]: 29.82
- log β [FeL] ([2]; ref 38 (H3L3), 35 (H3L4), 36,38 (DFOE)): 27.34
- log K LH2 (ligand protonation; log K2) [4, 13]: 8.97
- log K LH3 (ligand protonation; log K3) [4, 13]: 8.26
- log K LH (ligand protonation; log K1) [4, 13]: 9.50
- log β LH2 (ligand protonation) [4, 13]: 18.47
- log β LH3 (ligand protonation) [4, 13]: 26.73
- log β LH (ligand protonation) [4, 13]: 9.50

Structure (SMILES): O=C(O)CN(CCN(CC(=O)O)CC(=O)O)CC(=O)O [EDTA, ethylenediaminetetraacetic acid]
- pKa attributed to the deprotonation of a water molecule in the Zr(IV) complex [6]: 6.2

Structure (SMILES): O=C(NCCCN(CCCCN(CCCNC(=O)c1cccc(=O)n1O)C(=O)c1cccc(=O)n1O)C(=O)c1cccc(=O)n1O)c1cccc(=O)n1O [3,4,3-LI-HOPO]
- pZr [7]: 44.0[25],[58]

- pFe [8]: 26.9
- pGa [3]: 25.4
- pZr [5]: 31.5
Structure (SMILES): O=C1CCCCCN(O)C(=O)CCNC(=O)CCCCCN(O)C(=O)CCNC(=O)CCCCCN(O)C(=O)CCN1 [H3L3]
- log K LH (ligand protonation; log K1) [4, 13]: 9.89
- log β LH (ligand protonation) [4, 13]: 9.89

Structure (SMILES): O=C(O)CN1CCN(CC(=O)O)CCN(CC(=O)O)CCN(CC(=O)O)CC1 [DOTA, 1,4,7,10-tetraazacyclododecane-1,4,7,10-tetraacetic acid]
- pGa [9]: 20.5[11]

Structure (SMILES): O=C(O)CN1CCN(CC(=O)O)CCN(CC(=O)O)CC1 [NOTA]
- pGa [9]: 27.4[54]

Structure (SMILES): CC(=O)N(O)CCCCCNC(=O)CCC(=O)N(O)CCCCCNC(=O)CCC(=O)N(O)CCCCCNC(=O)CCC(=O)N(O)CCCCCN [DFO*]
- log β [Zr(L)] predicted from computational calculations [1]: 51.56

- pZr [5]: 31.0
Structure (SMILES): O=C1CCC(=O)N(O)CCCCCNC(=O)CCC(=O)N(O)CCCCCNC(=O)CCC(=O)N(O)CCCCCN1 [DFOE, desferrioxamine E, reference compound]
- log K LH2 (ligand protonation; log K2) [4, 13]: 9.42
- log K LH3 (ligand protonation; log K3) [4, 13]: 8.65
- log K LH (ligand protonation; log K1) [4, 13]: 9.89
- log β LH (ligand protonation) [4, 13]: 9.89
- pGa [9]: 25.2[38]

Structure (SMILES): Oc1cccc2ccc(CNCCNCc3ccc4cccc(O)c4n3)nc12 [H2hox]
- pGa [9]: 28.4[55]

Structure (SMILES): O=C(O)CN(CCN(CC(=O)O)CC(=O)O)CCN(CC(=O)O)CC(=O)O [DTPA]
- pZr [7]: 32.3[25],[59]

Structure (SMILES): O=C(O)CN(CCN(CC(=O)O)Cc1ccccc1O)Cc1ccccc1O [HBED]
- pGa [9]: 28.0[57]

Structure (SMILES): O=C(O)CCP(=O)(O)CN1CCN(CP(=O)(O)CCC(=O)O)CCN(CP(=O)(O)CCC(=O)O)CC1 [PrP9]
- pGa [9]: 23.1[56]

Structure (SMILES): CC(=O)N(O)CCCCCNC(=O)CCC(=O)N(O)CCCCCNC(=O)CCC(=O)N(O)CCCCCN [DFOB]
- pKa1 (protonation constant of the Ga(III) complex) [10]: 0.78
- pKa2 (protonation constant of the Ga(III) complex) [10]: 1.10
- pKa of the Th(IV) complex [11]: 1.9
- log β [ZrHDFOB] ([12]; spectra collected after 1h incubation): 45.9
- log β [ZrHDFOB] ([12]; spectra collected after 24h incubation): 46.1(2)
- pZr [7]: 32.2[24]
- log β [Zr(L)] predicted from computational calculations [1]: 41.20
- log β [ZrH(DFOB)OH] [6]: 40.04
- log β [ZrHDFOB] ([6]; different ionic strength): 47.7
- pKa attributed to the deprotonation of a water molecule in the Zr(IV) complex [6]: 6.36
- log Kamine (protonation constant of the amino group) [4]: 10.97
- pGa [9]: 21.6[43]
